Results taken from ChEMBL document CHEMBL4831559, “Antitarget Selectivity and Tolerability of Novel Pyrrolo[2,3-d]pyrimidine RET Inhibitors” (ACS Med Chem Lett, 2021).
The source made the active and inactive calls. No cut-off for these calls is given here.

What was measured:
[1] = AUC in BALB/c mouse at 2 mg/kg, iv measured by LC-MS/MS analysis; assay type: ADME, organism-based; design: dose 2 mg/kg; details: in vivo
BaF3 [2] = assay: Antitumor activity against mouse KIF5B-RET BaF3 cells xenografted in nude mouse assessed as tumor regression at 60 mg/kg, po qd measured after 14 days; assay type: functional, organism-based; details: time 14.0 day
[3] = Half life in BALB/c mouse at 2 mg/kg, iv measured by LC-MS/MS analysis; assay type: ADME, organism-based; details: in vivo
[4] = Clearance in BALB/c mouse at 2 mg/kg, iv measured by LC-MS/MS analysis; assay type: ADME, organism-based; details: in vivo
[5] = Cmax in BALB/c mouse at 10 mg/kg, po measured by LC-MS/MS analysis; assay type: ADME, organism-based; design: route oral, dose 10 mg/kg; details: in vivo
[6] = Toxicity in nude mouse transfected with mouse KIF5B-RET BaF3 cells assessed as body weight loss at 10 to 60 mg/kg, po qd measured after 14 days; assay type: organism-based; details: in vivo, 336 h, dose 10-60 mg/kg, time 14 day
[7] = Half life in BALB/c mouse at 10 mg/kg, po measured by LC-MS/MS analysis; assay type: ADME, organism-based; details: in vivo
[8] = AUC in nude mouse xenografted with KIF5B-RET BaF3 cells xenografted at 60 mg/kg, po qd for 14 days; assay type: ADME, organism-based; design: time 14 day, dose 60 mg/kg; details: in vivo
[9] = Plasma protein binding in mouse at 5 uM measured after 16 hrs by LC-MS/MS based rapid equilibrium dialysis analysis; assay type: ADME, cell-free; details: read-out: PPB (converted)
[10] = Volume of distribution at steady state in BALB/c mouse at 2 mg/kg, iv measured by LC-MS/MS analysis; assay type: ADME, organism-based; details: in vivo, read-out: Vdss
[11] = Oral bioavailability in BALB/c mouse at 10 mg/kg measured by LC-MS/MS analysis; assay type: ADME, organism-based; details: in vivo
[12] = Toxicity in nude mouse transfected with mouse KIF5B-RET BaF3 cells assessed as adverse effect at 10 to 60 mg/kg, po qd measured after 14 days; assay type: organism-based; details: in vivo, 336 h, dose 10-60 mg/kg, time 14 day
BaF3 [13] = assay: cells; details: Mus musculus, BaF3, 48 h
Description: Antiproliferative activity against mouse BaF3 cells assessed as reduction in cell proliferation incubated for 48 hrs by cell proliferation assay

[14] = AUC in BALB/c mouse at 10 mg/kg, po measured by LC-MS/MS analysis; assay type: ADME, organism-based; design: dose 10 mg/kg; details: in vivo
[15] = fCmax in nude mouse xenografted with KIF5B-RET BaF3 cells xenografted at 60 mg/kg, po qd for 14 days; assay type: ADME, organism-based; details: in vivo, 336 h, time 14 day
[16] = Cmax in BALB/c mouse at 2 mg/kg, iv measured by LC-MS/MS analysis; assay type: ADME, organism-based; design: route intravenous, dose 2 mg/kg; details: in vivo
[17] = target: Proto-oncogene tyrosine-protein kinase receptor Ret (Mus musculus) (UniProt P35546); assay: In vivo inhibition of RET phosphorylation in mouse KIF5B-RET BaF3 cells transfected in nude mouse […] at 60 mg/kg, po qd measured after 5 hrs; assay type: functional, organism-based
Proto-oncogene tyrosine-protein kinase receptor Ret (Mus musculus), sequence (P35546 whole entry): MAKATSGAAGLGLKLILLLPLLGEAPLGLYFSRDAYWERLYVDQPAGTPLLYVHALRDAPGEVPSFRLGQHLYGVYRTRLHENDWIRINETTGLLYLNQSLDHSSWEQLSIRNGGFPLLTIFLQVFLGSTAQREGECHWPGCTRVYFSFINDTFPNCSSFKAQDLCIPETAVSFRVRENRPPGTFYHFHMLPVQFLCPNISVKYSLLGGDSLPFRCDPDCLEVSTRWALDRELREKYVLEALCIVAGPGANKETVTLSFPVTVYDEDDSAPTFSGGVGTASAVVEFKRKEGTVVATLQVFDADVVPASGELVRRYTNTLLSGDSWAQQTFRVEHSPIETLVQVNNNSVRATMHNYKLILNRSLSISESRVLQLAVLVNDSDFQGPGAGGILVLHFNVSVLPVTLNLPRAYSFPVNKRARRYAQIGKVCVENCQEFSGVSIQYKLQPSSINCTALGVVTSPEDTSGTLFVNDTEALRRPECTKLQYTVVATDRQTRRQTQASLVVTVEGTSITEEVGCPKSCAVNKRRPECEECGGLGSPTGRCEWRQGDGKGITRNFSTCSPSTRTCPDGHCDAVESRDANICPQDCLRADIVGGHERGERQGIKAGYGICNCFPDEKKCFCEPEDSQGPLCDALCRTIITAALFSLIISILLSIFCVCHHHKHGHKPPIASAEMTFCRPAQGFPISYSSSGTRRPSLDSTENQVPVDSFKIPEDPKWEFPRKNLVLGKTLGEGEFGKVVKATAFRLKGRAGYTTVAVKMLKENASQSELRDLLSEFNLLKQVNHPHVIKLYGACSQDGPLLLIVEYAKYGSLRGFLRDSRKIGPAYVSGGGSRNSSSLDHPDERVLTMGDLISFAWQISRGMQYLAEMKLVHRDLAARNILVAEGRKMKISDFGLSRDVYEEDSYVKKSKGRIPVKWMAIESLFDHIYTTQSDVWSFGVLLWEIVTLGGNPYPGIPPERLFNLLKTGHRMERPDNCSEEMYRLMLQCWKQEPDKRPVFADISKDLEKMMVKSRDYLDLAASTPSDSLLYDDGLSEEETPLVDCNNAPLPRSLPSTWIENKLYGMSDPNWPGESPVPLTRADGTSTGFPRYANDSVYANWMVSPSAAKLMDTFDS

[18] = fAUC in nude mouse xenografted with KIF5B-RET BaF3 cells xenografted at 60 mg/kg, po qd for 14 days; assay type: ADME, organism-based; details: in vivo, 336 h, time 14 day
[19] = Cmax in nude mouse xenografted with KIF5B-RET BaF3 cells xenografted at 60 mg/kg, po qd for 14 days; assay type: ADME, organism-based; design: route oral, time 14 day, dose 60 mg/kg; details: in vivo
[20] = AUC in nude mouse xenografted with KIF5B-RET BaF3 cells xenografted at 10 mg/kg, po qd for 14 days; assay type: ADME, organism-based; design: time 14 day, dose 10 mg/kg; details: in vivo
[21] = fCmax in nude mouse xenografted with KIF5B-RET BaF3 cells xenografted at 10 mg/kg, po qd for 14 days; assay type: ADME, organism-based; details: in vivo, 336 h, time 14 day
[22] = Cmax in nude mouse xenografted with KIF5B-RET BaF3 cells xenografted at 10 mg/kg, po qd for 14 days; assay type: ADME, organism-based; design: route oral, time 14 day, dose 10 mg/kg; details: in vivo
[23] = fAUC in nude mouse xenografted with KIF5B-RET BaF3 cells xenografted at 10 mg/kg, po qd for 14 days; assay type: ADME, organism-based; details: in vivo, 336 h, time 14 day
[24] = Toxicity in nude mouse transfected with mouse KIF5B-RET BaF3 cells assessed as adverse effect at 10 mg/kg, po qd measured after 14 days; assay type: organism-based; details: in vivo, 336 h, time 14 day
Mus musculus [25] = assay: Antitumor activity against mouse KIF5B-RET BaF3 cells xenografted in nude mouse assessed as tumor regression at 10 mg/kg, po qd measured after 16 days; assay type: functional, organism-based; details: time 16.0 day
[26] = target: T1, Voltage-gated inwardly rectifying potassium channel KCNH2 (Homo sapiens, UniProt Q12809); assay: Displacement of [3H]-dofetilide from human ERG expressed in CHO cell after 90 mins by microbeta liquid scintillation counting method; assay type: cell-based
T1 sequence (Q12809 whole entry): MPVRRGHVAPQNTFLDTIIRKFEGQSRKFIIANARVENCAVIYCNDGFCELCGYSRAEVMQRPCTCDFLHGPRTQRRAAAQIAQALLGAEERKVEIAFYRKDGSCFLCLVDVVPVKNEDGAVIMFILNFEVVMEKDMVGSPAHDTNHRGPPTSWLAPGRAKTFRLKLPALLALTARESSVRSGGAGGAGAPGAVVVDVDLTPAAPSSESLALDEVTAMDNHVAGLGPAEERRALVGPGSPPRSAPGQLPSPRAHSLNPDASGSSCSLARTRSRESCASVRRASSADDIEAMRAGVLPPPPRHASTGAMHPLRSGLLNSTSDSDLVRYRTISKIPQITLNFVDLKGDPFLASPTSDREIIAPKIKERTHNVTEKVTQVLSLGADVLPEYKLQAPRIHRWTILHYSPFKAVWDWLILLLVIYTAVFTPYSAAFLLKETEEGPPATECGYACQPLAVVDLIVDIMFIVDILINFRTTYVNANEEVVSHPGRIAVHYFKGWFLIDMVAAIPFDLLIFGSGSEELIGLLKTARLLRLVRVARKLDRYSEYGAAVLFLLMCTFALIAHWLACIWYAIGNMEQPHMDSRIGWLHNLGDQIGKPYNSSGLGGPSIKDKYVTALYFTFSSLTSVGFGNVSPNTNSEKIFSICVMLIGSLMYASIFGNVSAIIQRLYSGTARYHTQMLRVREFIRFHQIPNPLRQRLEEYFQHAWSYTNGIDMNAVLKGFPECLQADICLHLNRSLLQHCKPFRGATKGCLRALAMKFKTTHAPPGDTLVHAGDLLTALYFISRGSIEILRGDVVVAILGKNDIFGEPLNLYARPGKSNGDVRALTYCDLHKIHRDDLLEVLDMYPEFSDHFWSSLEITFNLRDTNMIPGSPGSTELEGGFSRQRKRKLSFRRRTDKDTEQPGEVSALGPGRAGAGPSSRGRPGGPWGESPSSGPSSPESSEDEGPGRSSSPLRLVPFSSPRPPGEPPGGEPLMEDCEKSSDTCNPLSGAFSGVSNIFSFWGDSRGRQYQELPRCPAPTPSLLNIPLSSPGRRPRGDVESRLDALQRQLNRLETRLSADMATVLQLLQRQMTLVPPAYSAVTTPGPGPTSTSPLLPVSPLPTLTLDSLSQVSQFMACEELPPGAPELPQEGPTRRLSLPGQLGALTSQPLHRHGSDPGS

[27] = target: T1, Voltage-gated inwardly rectifying potassium channel KCNH2; assay: Inhibition of human ERG expressed in CHO cells by manual patch clamp assay; assay type: cell-based
BaF3 [28] = assay: Antitumor activity against mouse KIF5B-RET BaF3 cells xenografted in nude mouse assessed as tumor regression at 1 to 10 mg/kg, po qd measured after 16 days; assay type: functional, organism-based; details: dose 1-10 mg/kg, time 16.0 day
Mus musculus [29] = assay: Antitumor activity against mouse KIF5B-RET BaF3 cells xenografted in nude mouse assessed as tumor regression at 30 mg/kg, po qd measured after 16 days; assay type: functional, organism-based; details: time 16.0 day
BaF3 [30] = details: Mus musculus, dose 10.0 mg/kg, time 21.0 day
[31] = Toxicity in nude mouse transfected with mouse KIF5B-RET BaF3 cells assessed as adverse effect at 30 mg/kg, po qd measured after 14 days; assay type: organism-based; details: in vivo, 336 h, time 14 day

AUC [1] [µM·h]	half-life [3] [min]	clearance [4] [mL/min/kg]	Cmax [5] [µM]	half-life [7] [min]	fraction unbound at 16 h, 5 µM [9]	Vd [10] [L/kg]	bioavailability [11] [%]	IC50 (BaF3 [13]) [µM]	AUC [14] [µM·h]	Cmax [16] [µM]	AUC at 336 h [20] [µM·h]	fCmax [21] [µM]	Cmax [22] [µM]	fAUC [23] [µM·h]	SMILES	Activity (Mus musculus [25])	IC50 [26] [µM]	IC50 [27] [µM]	other results
5	72	15	3.8	144	0.356	1.3	48	4.6	12	5.1	–	–	–	–	CC(=O)N1CCN([C@H]2C[C@@H](n3cc(-c4ccc(Cl)c(N)c4)c4c(N)ncnc43)C2)CC1	–	–	–	Activity (BaF3 [2]): Active; Activity [6]: Non-Toxic; AUC at 336 h [8]: 115 µM·h; Activity [12]: Non-Toxic; fCmax [15]: 6.8 µM; inhibition [17]: Active; fAUC [18]: 41 µM·h; Cmax [19]: 19 µM
–	–	–	–	–	–	–	–	> 10	–	–	–	–	–	–	COc1cc(-c2cn([C@H]3C[C@@H](N4CCN(C(C)=O)CC4)C3)c3ncnc(N)c23)ccc1Cl	–	–	–	–
41	180	1.9	10	222	0.031	0.37	60	4.6	120	14	50	0.26	8.3	1.6	COC(=O)N[C@H]1CC[C@@H](n2cc(-c3ccc(Cl)c(N)c3)c3c(N)ncnc32)CC1	Active	25	5.3	Activity [24]: Non-Toxic
40	960	1.8	7.9	1140	0.0065	2.4	78	4.1	160	3.5	136	0.055	8.4	0.9	COC(=O)NC12CCC(n3cc(-c4cc(N)c(Cl)cc4F)c4c(N)ncnc43)(CC1)CC2	Active	> 30	6	Activity (BaF3 [28]): Active; Activity (Mus musculus [29]): Active; inhibition (BaF3 [30]): Active; Activity [31]: Non-Toxic
–	–	–	–	–	–	–	–	> 10	–	–	–	–	–	–	CC(=O)N1CCN([C@H]2C[C@@H](n3cc(-c4cccc(O)c4)c4c(N)ncnc43)C2)CC1	–	–	–	–
–	–	–	–	–	–	–	–	3.7	–	–	–	–	–	–	CC(=O)N1CCN([C@H]2C[C@@H](n3cc(-c4ccc(Cl)c(O)c4)c4c(N)ncnc43)C2)CC1	–	–	–	–
